According to PubChem BioAssay AID1259407 (Chemical Carcinogenesis Research Information System (CCRIS), 2018):
The source made the active and inactive calls. No rule for the calls is given here.

Test system: CCRIS mutagenicity, Ames/micronucleus/aberration tests
Experiment: CCRIS mutagenicity studies

CN(C)N=O
mutagenic call (Test System: AMES SALMONELLA TYPHIMURIUM, Strain/Indicator: TA1535ER, Metabolic Activation: NONE, Method: STANDARD PLATE): inactive; negative
mutagenic call (Test System: AMES SALMONELLA TYPHIMURIUM, Strain/Indicator: TA1975, Metabolic Activation: RAT, LIVER, S-9, AROCLOR 1254, Method: PREINCUBATION): active; positive
mutagenic call (Test System: AMES SALMONELLA TYPHIMURIUM, Strain/Indicator: TA2410, Metabolic Activation: NONE, Method: HOST-MEDIATED): active; positive
mutagenic call (Test System: AMES SALMONELLA TYPHIMURIUM, Strain/Indicator: TA2638, Metabolic Activation: NONE, Method: PREINCUBATION): active; positive
mutagenic call (Test System: AMES SALMONELLA TYPHIMURIUM, Strain/Indicator: TA2659, Metabolic Activation: NONE, Method: PREINCUBATION): inactive; negative
mutagenic call (Test System: AMES SALMONELLA TYPHIMURIUM, Strain/Indicator: TA2678, Metabolic Activation: NONE, Method: HOST-MEDIATED): active; positive
mutagenic call (Test System: AMES SALMONELLA TYPHIMURIUM, Strain/Indicator: YG7100, Metabolic Activation: S-9, Method: PREINCUBATION): active; positive
mutagenic call (Test System: AMES SALMONELLA TYPHIMURIUM, Strain/Indicator: YG7104, Metabolic Activation: RAT LIVER S-9, ETHANOL (4%), Method: PREINCUBATION): active; positive
mutagenic call (Test System: AMES SALMONELLA TYPHIMURIUM, Strain/Indicator: YG7104, Metabolic Activation: S-9, Method: PREINCUBATION): active; positive
mutagenic call (Test System: AMES SALMONELLA TYPHIMURIUM, Strain/Indicator: YG7104ER, Metabolic Activation: NONE, Method: STANDARD PLATE): active; positive
mutagenic call (Test System: AMES SALMONELLA TYPHIMURIUM, Strain/Indicator: YG7108, Metabolic Activation: RAT LIVER S-9, ETHANOL (4%), Method: PREINCUBATION): active; positive
mutagenic call (Test System: AMES SALMONELLA TYPHIMURIUM, Strain/Indicator: YG7108, Metabolic Activation: S-9, Method: PREINCUBATION): active; positive
mutagenic call (Test System: AMES SALMONELLA TYPHIMURIUM, Strain/Indicator: YG7108E, Metabolic Activation: NONE, Method: STANDARD PLATE): inactive; negative
mutagenic call (Test System: AMES SALMONELLA TYPHIMURIUM, Strain/Indicator: YG7108ER, Metabolic Activation: NONE, Method: STANDARD PLATE): active; positive
mutagenic call (Test System: AMES SALMONELLA TYPHIMURIUM, Strain/Indicator: YG7108R, Metabolic Activation: NONE, Method: STANDARD PLATE): inactive; negative
mutagenic call (Test System: AMES SALMONELLA TYPHIMURIUM, Strain/Indicator: YG7112, Metabolic Activation: S-9, Method: PREINCUBATION): active; positive
mutagenic call (Test System: AMES SALMONELLA TYPHIMURIUM, Strain/Indicator: YG7113, Metabolic Activation: S-9, Method: PREINCUBATION): active; positive
mutagenic call (Test System: AMES SALMONELLA TYPHIMURIUM, Strain/Indicator: YG7119, Metabolic Activation: S-9, Method: PREINCUBATION): inactive; negative
mutagenic call (Test System: CHINESE HAMSTER V-79, Strain/Indicator: V-79 (HPRT)/6-THIOGUANINE, Metabolic Activation: RAT, HEPATOCYTES): active; positive
mutagenic call (Test System: CHINESE HAMSTER V-79, Strain/Indicator: V-79 (HPRT)/6-THIOGUANINE, Metabolic Activation: RAT, HEPATOMA, H4IIE CELLS): active; positive
mutagenic call (Test System: CHINESE HAMSTER V-79, Strain/Indicator: V-79 (HPRT)/6-THIOGUANINE, Metabolic Activation: RAT, LIVER, S-9, AROCLOR 1254): active; positive
mutagenic call (Test System: CHINESE HAMSTER V-79, Strain/Indicator: V-79/6-THIOGUANINE, Metabolic Activation: NONE, Method: STANDARD PLATE): inactive; negative
mutagenic call (Test System: CHINESE HAMSTER V-79, Strain/Indicator: V-79/6-THIOGUANINE, Metabolic Activation: RAT, HEPATOCYTES, BUTYLATED HYDROXYANISOLE, Method: STANDARD PLATE): active; positive
mutagenic call (Test System: CHINESE HAMSTER V-79, Strain/Indicator: V-79/6-THIOGUANINE, Metabolic Activation: RAT, HEPATOCYTES, Method: STANDARD PLATE): active; positive
mutagenic call (Test System: CHINESE HAMSTER V-79, Strain/Indicator: V-79/6-THIOGUANINE, Metabolic Activation: RAT, LIVER, S-15, PHENOBARBITAL, Method: STANDARD PLATE): active; positive
mutagenic call (Test System: CHINESE HAMSTER V-79, Strain/Indicator: V-79/8-AZAGUANINE, Metabolic Activation: RAT, LIVER, S-15, PHENOBARBITAL, Method: STANDARD PLATE): active; positive
mutagenic call (Test System: CHINESE HAMSTER V-79, Strain/Indicator: V-79/OUABAIN, Metabolic Activation: CELL-MEDIATED, Method: STANDARD PLATE): active; positive
mutagenic call (Test System: CHINESE HAMSTER V-79, Strain/Indicator: V-79/OUABAIN, Metabolic Activation: FREE MICROSOMES M, LIVER, Method: STANDARD PLATE): active; positive
mutagenic call (Test System: CHINESE HAMSTER V-79, Strain/Indicator: V-79/OUABAIN, Metabolic Activation: HAMSTER, HEPATOCYTES, Method: CELL-MEDIATED): active; positive
mutagenic call (Test System: CHINESE HAMSTER V-79, Strain/Indicator: V-79/OUABAIN, Metabolic Activation: NONE, Method: STANDARD PLATE): inactive; negative
mutagenic call (Test System: CHINESE HAMSTER V-79, Strain/Indicator: V-79/OUABAIN, Metabolic Activation: RAT, HEPATOCYTES, BUTYLATED HYDROXYANISOLE, Method: STANDARD PLATE): active; positive
mutagenic call (Test System: CHINESE HAMSTER V-79, Strain/Indicator: V-79/OUABAIN, Metabolic Activation: RAT, HEPATOCYTES, Method: STANDARD PLATE): active; positive
mutagenic call (Test System: CHO/HGPRT, Strain/Indicator: CHO-K1-BH4, Metabolic Activation: MOUSE, IN VIVO, Method: HOST-MEDIATED): active; positive
mutagenic call (Test System: E. COLI, Strain/Indicator: WP2 (HCR), Metabolic Activation: RAT, LIVER, MICROSOMES, KANECHLOR 500, Method: PREINCUBATION): inactive; negative
mutagenic call (Test System: E. COLI, Strain/Indicator: WP2, Metabolic Activation: NONE, Method: STANDARD PLATE): active; positive
mutagenic call (Test System: E. COLI, Strain/Indicator: WP2, Metabolic Activation: RAT, LIVER, S-9, AROCLOR 1254, Method: STANDARD PLATE): active; positive
mutagenic call (Test System: E. COLI, Strain/Indicator: WP2 UVRA, Metabolic Activation: HAMSTER, LIVER, S-9, AROCLOR 1254, Method: PREINCUBATION): inactive; negative
mutagenic call (Test System: E. COLI, Strain/Indicator: WP2 UVRA, Metabolic Activation: HAMSTER, LIVER, S-9, Method: PREINCUBATION): inactive; negative
mutagenic call (Test System: E. COLI, Strain/Indicator: WP2 UVRA, Metabolic Activation: MOUSE, LIVER, S-9, AROCLOR 1254, Method: PREINCUBATION): inactive; negative
mutagenic call (Test System: E. COLI, Strain/Indicator: WP2 UVRA, Metabolic Activation: MOUSE, LIVER, S-9, Method: PREINCUBATION): inactive; negative
mutagenic call (Test System: E. COLI, Strain/Indicator: WP2 UVRA, Metabolic Activation: NONE, Method: PREINCUBATION): inactive; negative
mutagenic call (Test System: E. COLI, Strain/Indicator: WP2 UVRA, Metabolic Activation: NONE, Method: STANDARD PLATE): active; positive
mutagenic call (Test System: E. COLI, Strain/Indicator: WP2 UVRA, Metabolic Activation: RAT, LIVER, S-9, AROCLOR 1254, Method: PREINCUBATION): inactive; negative
mutagenic call (Test System: E. COLI, Strain/Indicator: WP2 UVRA, Metabolic Activation: RAT, LIVER, S-9, AROCLOR 1254, Method: STANDARD PLATE): active; positive
mutagenic call (Test System: E. COLI, Strain/Indicator: WP2 UVRA, Metabolic Activation: RAT, LIVER, S-9, Method: PREINCUBATION): inactive; negative
mutagenic call (Test System: MOUSE LYMPHOMA, Strain/Indicator: L5178Y (TK+/TK-), Metabolic Activation: RAT, LIVER, S-9, AROCLOR 1254, Method: SUSPENSION/PLATE): active; positive
mutagenic call (Test System: MOUSE LYMPHOMA, Strain/Indicator: L5178Y (TK+/TK-), Metabolic Activation: RAT, LIVER, S-9, Method: SUSPENSION/PLATE): active; positive
mutagenic call (Test System: UDS HUMAN CELLS, Strain/Indicator: THY INCORP (NON-S-PHASE), Metabolic Activation: NONE, Method: AUTORADIOGRAPHY): active; positive
mutagenic call (Test System: UDS HUMAN CELLS, Strain/Indicator: THY INCORP (NON-S-PHASE), Metabolic Activation: RAT, LIVER, S-9, Method: AUTORADIOGRAPHY): active; positive
mutagenic call (Test System: UDS HUMAN FIBROBLASTS, Strain/Indicator: THY INCORP (NON-S-PHASE), Metabolic Activation: NONE, Method: AUTORADIOGRAPHY): active; positive
mutagenic call (Test System: UDS HUMAN FIBROBLASTS, Strain/Indicator: THY INCORP (NON-S-PHASE), Metabolic Activation: RAT, LIVER, S-9, Method: LIQUID SCINTILLATION COUNTING): active; positive
mutagenic call (Test System: UDS MONKEY HEPATOCYTES, Strain/Indicator: THY INCORP, Metabolic Activation: AROCLOR 1254, Method: AUTORADIOGRAPHY): active; positive
mutagenic call (Test System: UDS MONKEY HEPATOCYTES, Strain/Indicator: THY INCORP, Metabolic Activation: NONE, Method: AUTORADIOGRAPHY): active; positive
mutagenic call (Test System: UDS MOUSE HEPATOCYTES, Metabolic Activation: NONE, Method: IN VIVO-IN VITRO): active; positive
mutagenic call (Test System: UDS RAT HEPATOCYTES, Strain/Indicator: BROMODEOXYURIDINE INCORP, Metabolic Activation: NONE, Method: FLOW CYTOMETRIC ANALYSIS): active; positive
mutagenic call (Test System: UDS RAT HEPATOCYTES, Strain/Indicator: THY INCORP, Metabolic Activation: NONE, Method: AUTORADIOGRAPHY): active; positive
mutagenic call (Test System: UDS RAT HEPATOCYTES, Strain/Indicator: THY INCORP, Metabolic Activation: NONE, Method: LIQUID SCINTILLATION COUNTING): active; positive
mutagenic call (Test System: UDS RODENT HEPATOCYTES, Strain/Indicator: THY INCORP (NON-S-PHASE), Method: AUTORADIOGRAPHY): active; positive
mutagenic call (Test System: UDS RODENT HEPATOCYTES, Strain/Indicator: THY INCORP (NON-S-PHASE), Method: LIQUID SCINTILLATION COUNTING): active; positive
mutagenic call (Test System: UDS, Strain/Indicator: HEPG2/THYMIDINE INCORPORATION, Metabolic Activation: NONE, Method: AUTORADIOGRAPHY): active; positive
